# Results reported in patent US20100075907A1, “NEUROMEDIN U RECEPTOR AGONISTS AND USES THEREOF” (priority 2006, published 2010).
# Starred links: 1 amine or outer side, 2 acyl side, 3 side chain; linkers in the order of their positions; H or OH if unused. Residues, ends and D or L forms follow the SMILES beside them. *: point of attachment. X2 = CCN1C(=O)CC(SC[C@H](NC(C)=O)C(=O)NCCCOCCOCCOCCCN*)C1=O; Succinimide(1-Et,3-yl) = CCN1C(=O)CC(*)C1=O; Palmitoyl = CCCCCCCCCCCCCCCC(=O)*; Suc = O=C(CCC(=O)[*:2])[*:1]
# Key:
# Assay type in all cases: cell-based
# rat NMUR2 = rat NMUR2 (Rattus norvegicus, UniProt Q9ESQ4); test: FLIPR calcium mobilization assay, rat NMUR2; parameters: expressed in transfected cells; host or cells: FLP-In CHO or HEK-293 FLP-In cells (pcDNA5); conditions: rat NMUR2; for EC50: FLIPR; for % Activity: maximum response at 1 μM compared to hNMU-25
# Excerpt: (§1) Human, mouse or rat cDNAs encoding NMUR1 or NMUR2 (as described in Howard et al. Nature 406: 70-74 (2000) were subcloned in pcDNA5 (Invitrogen) and transfected into FLP-In CHO cells and HEK-293 FLP-In cells purchased from Invitrogen (Carlsbad, Calif.) using lipofectamine (Invitrogen). The Flp-In system allows integration and expression of a particular gene of interest at a specific genomic location utilizing the Flp recombinase from yeast. The transfected cells were selected by growth in medium containing 200 μg/mL hygromycin (Invitrogen). Populations were frozen at early passage numbers, and these stocks were used for further studies. Stable clones that expressed the mRNAs were identified functionally by FLIPR as well as by RT-PCR. […] Two different rodent NMUR1 cell lines were thus generated: one with the codon as predicted from the genomic databases and another cell line with an engineered methionine (ATG) as the start codon. Additionally, stable cell lines expressing the human receptors were generated in HEK-293/aeq17 cells which stably express the aequorin gene under the CMV promoter. The human NMUR2 cDNA was cloned into pcDNA3.1 and human NMUR1 was subcloned into pIRES-puro (Clontech, Mountain View, Calif.), after transfection cells were selected in media containing G418 and either hygromycin (NMUR2) or puromycin (NMUR1).
# (§2) The NMU receptors signal primarily through Gαq/11 proteins; therefore calcium mobilization assays can be utilized for functional activity.
# (§3) Stable cell lines expressing human and or rodent NMUR1 or human NMUR2 receptors were plated at a density of 12,000 cells per well overnight on poly-lysine coated 384-well black-walled plates. The following day, the media was removed from the plates and the cells were subsequently loaded with Fluo-3 (Molecular Probes), a calcium sensitive dye, diluted in FLIPR buffer (1× Hank's buffered saline containing 20 mM HEPES, 0.1% BSA, 2.5 mM probenecid (Sigma) and 1.6 mM TR40). All reagents are from Invitrogen unless otherwise noted. Peptide stocks were resuspended in DMSO at a stock concentration of 2 mM and diluted in FLIPR buffer on the day of the experiment to a 4 μM working stock solution.
# (§4) After a 90 minute incubation at room-temperature, cell plates were loaded onto a FLIPR (Molecular Devices) to monitor cellular fluorescence (excitation=488 nm; emission=540 nm) before and after compound/peptide addition. Eight to twelve point dose responses were tested on NMUR-expressing cell lines using FLIPR with 1 μM peptide as the highest dose. The response after peptide addition was taken as the maximum fluorescence units minus the fluorescence immediately prior to stimulation for each well. EC50 values were calculated using GraphPad Prism (San Diego, Calif.) software.
# (§5) In vitro responses of Neuromedin U receptor agonists (NMU1 to NMU25) in the FLIPR assay for human (Table 3), mouse (Table 4) and rat (Table 5) NMUR1 and NMUR2. EC50s are reported in nM values. Percent activity refers to the maximum response at 1 μM compared to the hNMU-25 response at the same concentration. NT=not tested.
# mouse NMUR1-ATG = molecular target: T1, mouse NMUR1-ATG (Mus musculus, UniProt O55040); test: FLIPR calcium mobilization assay, mouse NMUR1-ATG; parameters: expressed in transfected cells; host or cells: FLP-In CHO or HEK-293 FLP-In cells (pcDNA5); conditions: mouse NMUR1-ATG; for % Activity: maximum response at 1 μM compared to hNMU-25; for EC50: FLIPR
# T1 sequence (O55040 1-428): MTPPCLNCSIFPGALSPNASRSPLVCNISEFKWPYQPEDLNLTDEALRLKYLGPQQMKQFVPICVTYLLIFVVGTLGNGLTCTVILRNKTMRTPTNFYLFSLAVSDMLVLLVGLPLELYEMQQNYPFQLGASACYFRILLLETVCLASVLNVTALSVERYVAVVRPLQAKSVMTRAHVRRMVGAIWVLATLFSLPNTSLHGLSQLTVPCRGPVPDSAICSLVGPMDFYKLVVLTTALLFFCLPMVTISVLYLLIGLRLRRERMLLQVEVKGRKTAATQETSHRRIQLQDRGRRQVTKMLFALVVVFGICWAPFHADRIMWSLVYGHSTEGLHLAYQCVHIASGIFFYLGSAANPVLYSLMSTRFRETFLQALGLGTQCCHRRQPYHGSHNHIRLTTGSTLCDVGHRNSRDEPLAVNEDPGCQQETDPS
# Excerpt: as §1, §2, §3, §4, §5
# hNMUR1 = molecular target: T2, hNMUR1 (Homo sapiens, UniProt Q9HB89); test: FLIPR calcium mobilization assay, human NMUR1; parameters: expressed in transfected cells; host or cells: FLP-In CHO or HEK-293 FLP-In cells (pcDNA5); HEK-293/aeq17 lines (pIRES-puro) were also made; conditions: human NMUR1; for % Activity: maximum response at 1 μM compared to hNMU-25 response at same concentration; for EC50: FLIPR
# T2 sequence (Q9HB89 1-426): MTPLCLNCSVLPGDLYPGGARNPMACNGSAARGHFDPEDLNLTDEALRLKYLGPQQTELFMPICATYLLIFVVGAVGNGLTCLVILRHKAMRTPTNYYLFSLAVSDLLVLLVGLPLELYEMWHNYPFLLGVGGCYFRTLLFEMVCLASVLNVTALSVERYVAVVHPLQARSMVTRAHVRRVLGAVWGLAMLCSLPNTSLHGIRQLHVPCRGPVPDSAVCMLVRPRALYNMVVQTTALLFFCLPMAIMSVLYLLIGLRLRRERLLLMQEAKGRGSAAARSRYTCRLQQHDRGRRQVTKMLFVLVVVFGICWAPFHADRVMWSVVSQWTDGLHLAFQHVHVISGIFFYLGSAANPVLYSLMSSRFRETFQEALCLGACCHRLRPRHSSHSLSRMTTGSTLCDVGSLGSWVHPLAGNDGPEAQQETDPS
# Excerpt: as §1, §2, §3, §4, §5
# hNMUR2 = hNMUR2 (Homo sapiens, UniProt Q9GZQ4); test: FLIPR calcium mobilization assay, human NMUR2; parameters: expressed in transfected cells; host or cells: FLP-In CHO or HEK-293 FLP-In cells (pcDNA5); HEK-293/aeq17 lines (pcDNA3.1) were also made; conditions: human NMUR2; for % Activity: maximum response at 1 μM compared to hNMU-25; for EC50: FLIPR
# Excerpt: as §1, §2, §3, §4, §5
# rat NMUR2, sequence (Q9ESQ4 whole entry): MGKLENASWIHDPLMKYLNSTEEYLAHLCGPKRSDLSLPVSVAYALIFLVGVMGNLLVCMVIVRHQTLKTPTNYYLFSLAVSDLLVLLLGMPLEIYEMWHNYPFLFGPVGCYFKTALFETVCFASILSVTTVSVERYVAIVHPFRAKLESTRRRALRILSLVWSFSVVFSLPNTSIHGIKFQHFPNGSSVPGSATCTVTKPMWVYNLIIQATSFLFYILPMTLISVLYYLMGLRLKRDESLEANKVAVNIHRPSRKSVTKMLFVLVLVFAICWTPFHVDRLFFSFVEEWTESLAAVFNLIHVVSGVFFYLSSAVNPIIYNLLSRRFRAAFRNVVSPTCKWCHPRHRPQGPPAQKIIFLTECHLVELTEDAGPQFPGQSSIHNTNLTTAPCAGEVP
# hNMUR2, sequence (Q9GZQ4 whole entry): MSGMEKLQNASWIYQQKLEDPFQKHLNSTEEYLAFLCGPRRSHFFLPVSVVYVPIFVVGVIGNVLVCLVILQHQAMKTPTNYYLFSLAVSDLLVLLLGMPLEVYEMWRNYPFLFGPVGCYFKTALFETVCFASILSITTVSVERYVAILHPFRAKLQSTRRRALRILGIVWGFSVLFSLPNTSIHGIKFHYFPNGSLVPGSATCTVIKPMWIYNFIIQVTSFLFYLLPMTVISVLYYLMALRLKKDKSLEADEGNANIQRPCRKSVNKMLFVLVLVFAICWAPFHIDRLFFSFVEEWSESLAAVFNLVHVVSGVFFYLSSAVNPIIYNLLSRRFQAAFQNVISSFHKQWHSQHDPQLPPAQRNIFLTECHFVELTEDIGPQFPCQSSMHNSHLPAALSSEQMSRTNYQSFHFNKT
Compound,EC50 (rat NMUR2) [nM],% Activity (rat NMUR2) [%],% Activity (mouse NMUR1-ATG) [%],% Activity (hNMUR1) [%],% Activity (hNMUR2) [%],EC50 (hNMUR2) [nM],EC50 (mouse NMUR1-ATG) [nM],EC50 (hNMUR1) [nM]
"CCN1C(=O)CC(SC[C@H](NC(C)=O)C(=O)NCCCOCCOCCOCCCNC(=O)CCC(=O)N[C@@H](Cc2ccccc2)C(=O)N[C@@H](CC(C)C)C(=O)N[C@@H](Cc2ccccc2)C(=O)N[C@@H](CCCNC(=N)N)C(=O)N2CCC[C@H]2C(=O)N[C@@H](CCCNC(=N)N)C(=O)N[C@@H](CC(N)=O)C(N)=O)C1=O (stereo partly shown) [NMU15, Ac-C1-Ttds-FLFRPRN-CONH2] ({X2-Suc}-FLFRPRN-NH2)",2.2,100,100,91.5,101,,,
"CCN1C(=O)CC(SC[C@H](NC(C)=O)C(=O)N[C@@H](C)C(=O)N[C@@H](CO)C(=O)N[C@@H](CCC(N)=O)C(=O)N[C@@H](CO)C(=O)N[C@@H](CCCNC(=N)N)C(=O)NCC(=O)N[C@@H](Cc2ccc(O)cc2)C(=O)N[C@@H](Cc2ccccc2)C(=O)N[C@@H](CC(C)C)C(=O)N[C@@H](Cc2ccccc2)C(=O)N[C@@H](CCCNC(=N)N)C(=O)N2CCC[C@H]2C(=O)N[C@@H](CCCNC(=N)N)C(=O)N[C@@H](CC(N)=O)C(N)=O)C1=O (stereo partly shown) [NMU17] (Ac-C(Succinimide(1-Et,3-yl))ASQSRGYFLFRPRN-NH2)",,100,100,100,99.8,1.5,,
"CCN1C(=O)CC(SC[C@H](NC(C)=O)C(=O)N[C@@H](Cc2ccccc2)C(=O)N[C@@H](CCC(N)=O)C(=O)N[C@@H](CO)C(=O)N2CCC[C@H]2C(=O)N[C@@H](Cc2ccccc2)C(=O)N[C@@H](C)C(=O)N[C@@H](CO)C(=O)N[C@@H](CCC(N)=O)C(=O)N[C@@H](CO)C(=O)N[C@@H](CCCNC(=N)N)C(=O)NCC(=O)N[C@@H](Cc2ccc(O)cc2)C(=O)N[C@@H](Cc2ccccc2)C(=O)N[C@@H](CC(C)C)C(=O)N[C@@H](Cc2ccccc2)C(=O)N[C@@H](CCCNC(=N)N)C(=O)N2CCC[C@H]2C(=O)N[C@@H](CCCNC(=N)N)C(=O)N[C@@H](CC(N)=O)C(N)=O)C1=O (stereo partly shown) [NMU19] (Ac-C(Succinimide(1-Et,3-yl))FQSPFASQSRGYFLFRPRN-NH2)",,100,100,95.9,105,,,
"Ac-C2FQSPFASQSRGYFLFRPRN-CONH2 ({Ac-C(PEG 40 kDa)}-FQSPFASQSRGYFLFRPRN-NH2; not fully specified; printed as Ac-C2FQSPFASQSRGYFLFRPRN-CONH2) [NMU20, C2 = Cys(PEG)240 kDa]",16.9,,,,,13,12.7,16.4
Ac-C2FRVDEEFQSPFASQSRGYFLFRPRN-CONH2 [NMU9] ({Ac-C(PEG 40 kDa)}-FRVDEEFQSPFASQSRGYFLFRPRN-NH2) [C2 = Cys(PEG)240 kDa from Nektar (mPEG2-MAL-40 k)],4.5,,95.0,94.4,94.3,91.1,45.7,50.6

# Second part, the compound after the results:
EC50 (rat NMUR2) [nM],% Activity (rat NMUR2) [%],% Activity (mouse NMUR1-ATG) [%],% Activity (hNMUR1) [%],% Activity (hNMUR2) [%],EC50 (hNMUR2) [nM],EC50 (mouse NMUR1-ATG) [nM],EC50 (hNMUR1) [nM],Compound
,98.8,100,95.6,105,,,,"CCN1C(=O)CC(SC[C@H](NC(C)=O)C(=O)N[C@@H](CSC2CC(=O)N(CC)C2=O)C(=O)N[C@@H](Cc2ccccc2)C(=O)N[C@@H](CCCNC(=N)N)C(=O)N[C@H](C(=O)N[C@@H](CC(=O)O)C(=O)N[C@@H](CCC(=O)O)C(=O)N[C@@H](CCC(=O)O)C(=O)N[C@@H](Cc2ccccc2)C(=O)N[C@@H](CCC(N)=O)C(=O)N[C@@H](CO)C(=O)N2CCC[C@H]2C(=O)N[C@@H](Cc2ccccc2)C(=O)N[C@@H](C)C(=O)N[C@@H](CO)C(=O)N[C@@H](CCC(N)=O)C(=O)N[C@@H](CO)C(=O)N[C@@H](CCCNC(=N)N)C(=O)NCC(=O)N[C@@H](Cc2ccc(O)cc2)C(=O)N[C@@H](Cc2ccccc2)C(=O)N[C@@H](CC(C)C)C(=O)N[C@@H](Cc2ccccc2)C(=O)N[C@@H](CCCNC(=N)N)C(=O)N2CCC[C@H]2C(=O)N[C@@H](CCCNC(=N)N)C(=O)N[C@@H](CC(N)=O)C(N)=O)C(C)C)C1=O (stereo partly shown) [NMU22] (Ac-C(Succinimide(1-Et,3-yl))C(Succinimide(1-Et,3-yl))FRVDEEFQSPFASQSRGYFLFRPRN-NH2)"
,52.2,81.4,34.4,63.9,,,,"CCCCCCCCCCCCCCCC(=O)N[C@@H](CSC1CC(=O)N(CC)C1=O)C(=O)N[C@@H](Cc1ccccc1)C(=O)N[C@@H](CCCNC(=N)N)C(=O)N[C@H](C(=O)N[C@@H](CC(=O)O)C(=O)N[C@@H](CCC(=O)O)C(=O)N[C@@H](CCC(=O)O)C(=O)N[C@@H](Cc1ccccc1)C(=O)N[C@@H](CCC(N)=O)C(=O)N[C@@H](CO)C(=O)N1CCC[C@H]1C(=O)N[C@@H](Cc1ccccc1)C(=O)N[C@@H](C)C(=O)N[C@@H](CO)C(=O)N[C@@H](CCC(N)=O)C(=O)N[C@@H](CO)C(=O)N[C@@H](CCCNC(=N)N)C(=O)NCC(=O)N[C@@H](Cc1ccc(O)cc1)C(=O)N[C@@H](Cc1ccccc1)C(=O)N[C@@H](CC(C)C)C(=O)N[C@@H](Cc1ccccc1)C(=O)N[C@@H](CCCNC(=N)N)C(=O)N1CCC[C@H]1C(=O)N[C@@H](CCCNC(=N)N)C(=O)N[C@@H](CC(N)=O)C(N)=O)C(C)C (stereo partly shown) [NMU24] (Palmitoyl-C(Succinimide(1-Et,3-yl))FRVDEEFQSPFASQSRGYFLFRPRN-NH2)"
7,99.2,,93.2,97.9,24.2,9.1,14.5,"Ac-C4FRVDEEFQSPFASQSRGYFLFRPRN-CONH2 ({Ac-C(PEG 20 kDa)}-FRVDEEFQSPFASQSRGYFLFRPRN-NH2) [NMU21, C4 = Cys(PEG)20 kDa]"
